US11952344B2, “Heterocyclic compound and use thereof” (TAKEDA PHARMACEUTICAL COMPANY LIMITED, priority 2019, dated 2024)

Target: T1, Human NMDA (NR1/NR2B) Receptor (Homo sapiens, UniProt Q13224)
T1 construct: host or cells: HEK293
Assay: NR2B Ca2+ influx assay
Assay type: cell-based
Settings: 10 μM compound; HEK293 cells expressing GRIN1 and GRIN2B; glutamic acid/glycine-induced Ca2+ influx, Fluo-4 fluorescence; read-out: inhibitory rate (10 μM compound concentration)
Description: Experimental Example 1 NR2B Ca^2+ Influx Assay
To confirm the “antagonistic action on an NMDA receptor containing the NR2B subunit” of the compound of the present invention, human embryonic kidney cell expressing the “NMDA receptor composed of four subunits including 2 sets of heterodimers of NR1 and NR2B”, specifically HEK293 cell expressing human glutamate ionotropic receptor NMDA type subunit 1 (GRIN1) and human glutamate ionotropic receptor NMDA type subunit 2B (GRIN2B), was used and the activation suppressive effect (inhibitory activity) on the receptors by the compound of the present invention was measured.
HEK293 cells that express GRIN1 and GRIN2B were purchased from ChanTest (Human NMDA (NR1/NR2B) Receptor-expressing, stable replicating cell line (HEK293) catalog No. CT6121).
As an index of the NMDA receptor activation, intracellular calcium ion (Ca^2+) influx caused by the binding of glycine and glutamic acid with NR1 and NR2B, respectively, was used.
HEK293 cells that express GRIN1 and GRIN2B were cultured in a cell culture flask in DMEM/F-12 (COSMO BIO, 10-092-CM) medium added with 10% FBS (fetal bovine serum, AusGene), 100 units/mL penicillin, 100 μg/mL streptomycin, 500 μg/mL neomycin, 100 μg/mL Zeocin (registered trade mark, Invitrogen), 5 μg/mL Blasticidin, in an incubator (37° C., 5% CO2).
The cells were detached from flask with trypsin the day before the assay, suspended in a seeding medium (DMEM (Invitrogen, 31053) added with 10% FBS, 100 units/mL penicillin, 100 μg/mL streptomycin) at 8×10^5 cells/mL, seeded by 25 μL/well in a 384-well plate (Falcon, 356663) at 20000 cells/well, and cultured overnight in an incubator. On the day of the assay, tetracycline (Wako Pure Chemical Industries, Ltd., 209-16561) was diluted with the seeding medium at 2 μg/mL, added at 25 μL/well to the plate seeded with the cells, and cultured for 2 hr in an incubator. Thereafter, the medium was removed, and the cells were washed with 50 μL/well assay buffer (137 mM NaCl, 4 mM KCl, 1.8 mM CaCl2, 10 mM HEPES (pH 7.2), 10 mM Glucose, 0.1% BSA). Then, a loading buffer (assay buffer added with 2.5 μM Fluo-4AM, 2 mM Amaranth, 1 mM Tartrazine) was added at 25 μL/well, and incubation was performed in the incubator for 30 min, and at room temperature for 15 min. A solution (25 μL/well) of the Example compound diluted with the above-mentioned assay buffer at 30 μM (final concentration 10 μM) was added, and the cells were stood for 15 min at room temperature. Using FDSS7000EX/μCELL (Hamamatsu Photonics K.K.), 25 μL/well of an assay buffer containing 30 μM glutamic acid, 30 μM glycine was added, and the fluorescence signal at wavelength of Excitation 480 nm, Emission 540 nm was measured every 3 seconds for 5 min. The inhibitory activity was calculated as a relative activity value (inhibitory rate) that inhibits 100% of the cumulative value of the fluorescence value of a well added with an assay buffer free of glutamic acid, glycine, relative to the cumulative value of the fluorescence value of each well.

T1 sequence (Q13224 27-1484, other chains not shown): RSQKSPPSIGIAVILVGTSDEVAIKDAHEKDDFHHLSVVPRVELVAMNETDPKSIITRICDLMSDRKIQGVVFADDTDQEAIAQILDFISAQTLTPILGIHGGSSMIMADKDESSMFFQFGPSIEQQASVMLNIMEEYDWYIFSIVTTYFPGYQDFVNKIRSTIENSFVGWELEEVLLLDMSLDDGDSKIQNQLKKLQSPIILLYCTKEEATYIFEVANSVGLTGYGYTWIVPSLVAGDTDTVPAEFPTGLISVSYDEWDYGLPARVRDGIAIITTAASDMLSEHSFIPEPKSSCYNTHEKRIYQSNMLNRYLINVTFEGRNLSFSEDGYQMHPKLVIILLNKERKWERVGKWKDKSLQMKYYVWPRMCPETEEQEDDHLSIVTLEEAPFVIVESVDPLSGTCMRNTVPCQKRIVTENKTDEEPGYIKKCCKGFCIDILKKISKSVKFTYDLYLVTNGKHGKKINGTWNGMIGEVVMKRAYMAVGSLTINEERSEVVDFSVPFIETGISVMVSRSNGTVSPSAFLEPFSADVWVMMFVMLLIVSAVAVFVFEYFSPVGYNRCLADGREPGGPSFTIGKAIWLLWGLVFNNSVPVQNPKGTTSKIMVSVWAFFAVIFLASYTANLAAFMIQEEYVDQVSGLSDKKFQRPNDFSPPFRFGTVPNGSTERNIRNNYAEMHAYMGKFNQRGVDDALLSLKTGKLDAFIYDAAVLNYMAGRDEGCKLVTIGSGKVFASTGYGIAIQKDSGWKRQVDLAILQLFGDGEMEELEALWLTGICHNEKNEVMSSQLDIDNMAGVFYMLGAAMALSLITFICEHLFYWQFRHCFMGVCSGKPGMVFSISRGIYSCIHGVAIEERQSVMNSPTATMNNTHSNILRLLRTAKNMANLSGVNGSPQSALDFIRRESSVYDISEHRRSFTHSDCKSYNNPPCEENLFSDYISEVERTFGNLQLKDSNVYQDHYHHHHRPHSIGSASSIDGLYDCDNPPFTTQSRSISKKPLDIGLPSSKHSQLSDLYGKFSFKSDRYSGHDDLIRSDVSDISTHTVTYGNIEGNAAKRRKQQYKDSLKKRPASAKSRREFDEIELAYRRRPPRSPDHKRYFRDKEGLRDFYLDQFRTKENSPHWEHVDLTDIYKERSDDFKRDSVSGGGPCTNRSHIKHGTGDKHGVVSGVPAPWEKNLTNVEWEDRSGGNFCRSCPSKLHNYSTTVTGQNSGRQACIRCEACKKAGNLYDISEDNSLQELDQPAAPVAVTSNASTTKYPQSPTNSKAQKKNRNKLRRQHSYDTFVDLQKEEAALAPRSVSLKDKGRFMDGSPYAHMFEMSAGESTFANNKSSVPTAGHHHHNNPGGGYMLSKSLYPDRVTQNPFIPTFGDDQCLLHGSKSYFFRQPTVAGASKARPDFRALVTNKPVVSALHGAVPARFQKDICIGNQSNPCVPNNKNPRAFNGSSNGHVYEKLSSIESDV

| SMILES | inhibition at 10 µM |
| --- | --- |
| COc1cncc(CNC(=O)c2ccc(OC(F)(F)F)cc2)c1 [Example 1, N-[(5-methoxypyridin-3-yl)methyl]-4-(trifluoromethoxy)benzamide] | 95% |
| O=C(NCc1cncc(Cl)c1)c1ccc(OC(F)(F)F)cc1 [Example 2, N-[(5-chloropyridin-3-yl)methyl]-4-(trifluoromethoxy)benzamide] | 93% |
| O=C(NCc1cncc(Br)c1)c1ccc(OC(F)(F)F)cc1 [Example 3, N-[(5-bromopyridin-3-yl)methyl]-4-(trifluoromethoxy)benzamide] | 95% |
| Cc1ccncc1CNC(=O)c1ccc(OC(F)(F)F)cc1 [Example 4, N-[(4-methylpyridin-3-yl)methyl]-4-(trifluoromethoxy)benzamide] | 96% |
| COc1ccncc1CNC(=O)c1cnc(OC(F)F)c(F)c1 [Example 5, 6-(difluoromethoxy)-5-fluoro-N-[(4-methoxypyridin-3-yl)methyl]pyridine-3-carboxamide] | 94% |
| COc1c(F)cncc1CNC(=O)c1cnc(OC(F)F)c(F)c1 [Example 6, 6-(difluoromethoxy)-5-fluoro-N-[(5-fluoro-4-methoxypyridin-3-yl)methyl]pyridine-3-carboxamide] | 95% |
| COc1ccncc1CNC(=O)c1ccc(OC(F)(F)F)cc1 [Example 7, N-[(4-methoxypyridin-3-yl)methyl]-4-(trifluoromethoxy)benzamide] | 91% |
| COc1ccncc1CNC(=O)c1ccc(OC(F)(F)F)c(F)c1 [Example 8, 3-fluoro-N-[(4-methoxypyridin-3-yl)methyl]-4-(trifluoromethoxy)-benzamide] | 95% |
| COc1ccncc1CNC(=O)c1ccc(C(F)(F)F)c(F)c1 [Example 9, 3-fluoro-N-[(4-methoxypyridin-3-yl)methyl]-4-(trifluoromethyl)benzamide] | 90% |
| CCOc1ccncc1CNC(=O)c1cnc(OC(F)F)c(F)c1 [Example 10, 6-(difluoromethoxy)-N-[(4-ethoxypyridin-3-yl)methyl]-5-fluoropyridine-3-carboxamide] | 96% |
| CCOc1ccncc1CNC(=O)c1ccc(OC(F)F)c(F)c1 [Example 11, 4-(difluoromethoxy)-N-[(4-ethoxypyridin-3-yl)methyl]-3-fluorobenzamide] | 95% |
| COc1ncncc1CNC(=O)c1ccc(OC(F)F)c(F)c1 [Example 13, 4-(difluoromethoxy)-3-fluoro-N-[(4-methoxypyrimidin-5-yl)methyl]benzamide] | 93% |
| O=C(NCc1cnccc1OC1CC1)c1cnc(OC(F)F)c(F)c1 [Example 14, N-{[4-(cyclopropyloxy)-pyridin-3-yl]methyl}-6-(difluoromethoxy)-5-fluoropyridine-3-carboxamide] | 96% |
| O=C(NCc1cnccc1C1CC1)c1cnc(OC(F)F)c(F)c1 [Example 15, N-[(4-cyclopropylpyridin-3-yl)methyl]-6-(difluoromethoxy)-5-fluoropyridine-3-carboxamide] | 96% |
| O=C(NCc1cnccc1C(F)(F)F)c1cnc(OC(F)F)c(F)c1 [Example 16, 6-(difluoromethoxy)-5-fluoro-N-{[4-(trifluoromethyl)pyridin-3-yl]methyl}pyridine-3-carboxamide] | 94% |
| COc1ccncc1CNC(=O)c1cnc(OC(F)F)c(Cl)c1 [Example 17, 5-chloro-6-(difluoromethoxy)-N-[(4-methoxypyridin-3-yl)methyl]pyridine-3-carboxamide] | 98% |
| Cc1ccncc1CNC(=O)c1cnc(OC(F)F)c(F)c1 [Example 18, 6-(difluoromethoxy)-5-fluoro-N-[(4-methylpyridin-3-yl)methyl]pyridine-3-carboxamide] | 96% |

| SMILES | inhibition at 10 µM |
| --- | --- |
| O=C(NCc1cncnc1OC1CC1)c1cnc(OC(F)F)c(F)c1 [Example 19, N-{[4-(cyclopropyloxy)pyrimidin-5-yl]methyl}-6-(difluoromethoxy)-5-fluoropyridine-3-carboxamide] | 91% |
| CC(C)Oc1ncncc1CNC(=O)c1cnc(OC(F)F)c(F)c1 [Example 20, 6-(difluoromethoxy)-5-fluoro-N-({4-[(propan-2-yl)oxy]pyrimidin-5-yl}methyl)pyridine-3-carboxamide] | 94% |
| COc1ncncc1CNC(=O)c1cnc(OC(F)F)c(Cl)c1 [Example 21, 5-chloro-6-(difluoromethoxy)-N-[(4-methoxypyrimidin-5-yl)methyl]pyridine-3-carboxamide] | 93% |
| COc1ncncc1CNC(=O)c1ccc(OC(F)(F)F)c(F)c1 [Example 22, 3-fluoro-N-[(4-methoxypyrimidin-5-yl)methyl]-4-(trifluoromethoxy)benzamide] | 95% |
| O=C(NCc1cncnc1C1CC1)c1cnc(OC(F)F)c(F)c1 [Example 23, N-[(4-cyclopropylpyrimidin-5-yl)methyl]-6-(difluoromethoxy)-5-fluoropyridine-3-carboxamide] | 95% |
| CCOc1ncncc1CNC(=O)c1cnc(OC(F)F)c(F)c1 [Example 24, 6-(difluoromethoxy)-N-[(4-ethoxypyrimidin-5-yl)methyl]-5-fluoropyridine-3-carboxamide] | 95% |
| COc1ncncc1CNC(=O)c1ccc(OC(F)F)cc1 [Example 25, 4-(difluoromethoxy)-N-[(4-methoxypyrimidin-5-yl)methyl]benzamide] | 88% |
| COc1ncncc1CNC(=O)c1ccc(OC(F)(F)F)cc1 [Example 26, N-[(4-methoxypyrimidin-5-yl)methyl]-4-(trifluoromethoxy)-benzamide] | 93% |
| Cc1ccncc1CNC(=O)c1cnc(OC(F)F)c(Cl)c1 [Example 27, 5-chloro-6-(difluoromethoxy)-N-[(4-methylpyridin-3-yl)methyl]pyridine-3-carboxamide] | 95% |
| CCc1ncncc1CNC(=O)c1cnc(OC(F)F)c(F)c1 [Example 28, 6-(difluoromethoxy)-N-[(4-ethylpyrimidin-5-yl)methyl]-5-fluoropyridine-3-carboxamide] | 87% |
| CC(F)(F)c1ncncc1CNC(=O)c1cnc(OC(F)F)c(F)c1 [Example 29, N-{[4-(1,1-difluoroethyl)-pyrimidin-5-yl]methyl}-6-(difluoromethoxy)-5-fluoropyridine-3-carboxamide] | 92% |
| Cc1ncncc1CNC(=O)c1ccc(OC(F)(F)F)c(F)c1 [Example 30, 3-fluoro-N-[(4-methylpyrimidin-5-yl)methyl]-4-(trifluoromethoxy)-benzamide] | 92% |
| Cc1ncncc1CNC(=O)c1cnc(OC(F)F)c(F)c1 [Example 31, 6-(difluoromethoxy)-5-fluoro-N-[(4-methylpyrimidin-5-yl)methyl]pyridine-3-carboxamide] | 68% |
| O=C(NCc1cncnc1OC1CC(F)(F)C1)c1cnc(OC(F)F)c(F)c1 [Example 32, N-({4-[(3,3-difluorocyclobutyl)-oxy]pyrimidin-5-yl}methyl)-6-(difluoromethoxy)-5-fluoropyridine-3-carboxamide] | 96% |
| COc1ncncc1CNC(=O)c1cnc(OC(F)(F)F)c(F)c1 [Example 33, 5-fluoro-N-[(4-methoxypyrimidin-5-yl)methyl]-6-(trifluoromethoxy)pyridine-3-carboxamide] | 94% |
| COc1ccncc1CNC(=O)c1cnc(OC(F)(F)F)c(F)c1 [Example 34, 5-fluoro-N-[(4-methoxypyridin-3-yl)methyl]-6-(trifluoromethoxy)pyridine-3-carboxamide] | 97% |
| Cc1ccncc1CNC(=O)c1cnc(OC(F)(F)F)c(F)c1 [Example 35, 5-fluoro-N-[(4-methylpyridin-3-yl)methyl]-6-(trifluoromethoxy)-pyridine-3-carboxamide] | 96% |
